In ChEMBL document CHEMBL1641539 (Bioorg Med Chem Lett, 2011):

Tests used:
[1] = target: Mitogen-activated protein kinase 8 (Homo sapiens, UniProt P45983); assay: Inhibition of human JNK1alpha1 at 10 uM after 60 mins by TR-FRET assay; conditions: values are per cent of control
[2] = target: T1, Serine/threonine-protein kinase 3 (Homo sapiens) (UniProt Q13188); assay: Inhibition of human MST2 at 10 uM after 60 mins by TR-FRET assay; conditions: values are per cent of control
T1 sequence (whole entry): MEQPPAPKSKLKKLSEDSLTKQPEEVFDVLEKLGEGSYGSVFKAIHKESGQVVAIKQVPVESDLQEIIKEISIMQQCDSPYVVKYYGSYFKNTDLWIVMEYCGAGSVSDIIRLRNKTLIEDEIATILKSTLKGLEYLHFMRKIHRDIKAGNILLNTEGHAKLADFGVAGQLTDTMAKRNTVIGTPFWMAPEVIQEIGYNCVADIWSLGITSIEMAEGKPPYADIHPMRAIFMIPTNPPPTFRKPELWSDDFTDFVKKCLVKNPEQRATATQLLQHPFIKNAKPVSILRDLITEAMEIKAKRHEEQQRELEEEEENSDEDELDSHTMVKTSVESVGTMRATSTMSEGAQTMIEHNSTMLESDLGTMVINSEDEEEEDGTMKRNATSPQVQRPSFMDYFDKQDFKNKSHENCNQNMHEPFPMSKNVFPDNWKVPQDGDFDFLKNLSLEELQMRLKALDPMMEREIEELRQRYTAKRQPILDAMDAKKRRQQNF

[3] = target: Insulin receptor (Homo sapiens) (UniProt P06213); assay: Inhibition of human IR at 10 uM after 60 mins by TR-FRET assay; values are per cent of control
[4] = target: Serine/threonine-protein kinase Sgk2 (Homo sapiens) (UniProt Q9HBY8); assay: Inhibition of human SGK2 at 10 uM after 60 mins by TR-FRET assay; values are per cent of control
Sequence of Serine/threonine-protein kinase Sgk2 (Homo sapiens) (Q9HBY8 whole entry): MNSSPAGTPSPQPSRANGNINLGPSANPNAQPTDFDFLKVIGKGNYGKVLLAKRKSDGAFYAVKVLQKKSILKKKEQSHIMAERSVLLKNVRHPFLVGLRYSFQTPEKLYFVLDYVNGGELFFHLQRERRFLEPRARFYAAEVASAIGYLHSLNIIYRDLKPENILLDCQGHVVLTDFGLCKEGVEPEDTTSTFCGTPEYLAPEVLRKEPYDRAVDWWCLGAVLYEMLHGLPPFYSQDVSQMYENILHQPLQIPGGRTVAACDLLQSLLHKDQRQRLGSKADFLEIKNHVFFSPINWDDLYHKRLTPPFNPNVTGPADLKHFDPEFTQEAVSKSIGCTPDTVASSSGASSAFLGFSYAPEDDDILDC

[5] = target: Serine/threonine-protein kinase WNK2 (Homo sapiens) (UniProt Q9Y3S1); assay: Inhibition of human WNK2 at 10 uM after 60 mins by TR-FRET assay; values are per cent of control
[6] = target: Serine/threonine-protein kinase PLK3 (Homo sapiens) (UniProt Q9H4B4); assay: Inhibition of human Plk3 at 10 uM after 60 mins by TR-FRET assay; values are per cent of control
Sequence of Serine/threonine-protein kinase PLK3 (Homo sapiens) (Q9H4B4 whole entry, looked up): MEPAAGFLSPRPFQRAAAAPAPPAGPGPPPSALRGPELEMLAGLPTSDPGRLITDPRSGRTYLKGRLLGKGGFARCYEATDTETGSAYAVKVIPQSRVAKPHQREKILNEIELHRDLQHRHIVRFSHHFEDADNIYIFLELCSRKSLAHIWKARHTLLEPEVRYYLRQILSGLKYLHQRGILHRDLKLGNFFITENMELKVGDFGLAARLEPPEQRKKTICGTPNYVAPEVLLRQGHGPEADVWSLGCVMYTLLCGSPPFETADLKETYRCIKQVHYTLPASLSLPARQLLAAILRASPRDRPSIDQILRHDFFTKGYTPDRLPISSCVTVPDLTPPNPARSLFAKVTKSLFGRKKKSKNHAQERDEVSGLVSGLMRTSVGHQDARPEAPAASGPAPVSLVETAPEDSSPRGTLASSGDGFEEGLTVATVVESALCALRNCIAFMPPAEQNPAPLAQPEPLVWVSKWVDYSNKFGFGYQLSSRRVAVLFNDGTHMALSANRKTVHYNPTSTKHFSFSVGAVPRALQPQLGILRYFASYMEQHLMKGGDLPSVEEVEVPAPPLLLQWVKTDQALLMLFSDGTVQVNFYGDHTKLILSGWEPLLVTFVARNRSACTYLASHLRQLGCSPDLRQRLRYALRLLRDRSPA

[7] = target: Protein-tyrosine kinase 2-beta (Homo sapiens) (UniProt Q14289); assay: Inhibition of human Pyk2 at 10 uM after 60 mins by TR-FRET assay; values are per cent of control
[8] = target: Ephrin type-A receptor 4 (Homo sapiens) (UniProt P54764); assay: Inhibition of human EphA4 at 10 uM after 60 mins by TR-FRET assay; values are per cent of control
Sequence of Ephrin type-A receptor 4 (Homo sapiens) (P54764 whole entry): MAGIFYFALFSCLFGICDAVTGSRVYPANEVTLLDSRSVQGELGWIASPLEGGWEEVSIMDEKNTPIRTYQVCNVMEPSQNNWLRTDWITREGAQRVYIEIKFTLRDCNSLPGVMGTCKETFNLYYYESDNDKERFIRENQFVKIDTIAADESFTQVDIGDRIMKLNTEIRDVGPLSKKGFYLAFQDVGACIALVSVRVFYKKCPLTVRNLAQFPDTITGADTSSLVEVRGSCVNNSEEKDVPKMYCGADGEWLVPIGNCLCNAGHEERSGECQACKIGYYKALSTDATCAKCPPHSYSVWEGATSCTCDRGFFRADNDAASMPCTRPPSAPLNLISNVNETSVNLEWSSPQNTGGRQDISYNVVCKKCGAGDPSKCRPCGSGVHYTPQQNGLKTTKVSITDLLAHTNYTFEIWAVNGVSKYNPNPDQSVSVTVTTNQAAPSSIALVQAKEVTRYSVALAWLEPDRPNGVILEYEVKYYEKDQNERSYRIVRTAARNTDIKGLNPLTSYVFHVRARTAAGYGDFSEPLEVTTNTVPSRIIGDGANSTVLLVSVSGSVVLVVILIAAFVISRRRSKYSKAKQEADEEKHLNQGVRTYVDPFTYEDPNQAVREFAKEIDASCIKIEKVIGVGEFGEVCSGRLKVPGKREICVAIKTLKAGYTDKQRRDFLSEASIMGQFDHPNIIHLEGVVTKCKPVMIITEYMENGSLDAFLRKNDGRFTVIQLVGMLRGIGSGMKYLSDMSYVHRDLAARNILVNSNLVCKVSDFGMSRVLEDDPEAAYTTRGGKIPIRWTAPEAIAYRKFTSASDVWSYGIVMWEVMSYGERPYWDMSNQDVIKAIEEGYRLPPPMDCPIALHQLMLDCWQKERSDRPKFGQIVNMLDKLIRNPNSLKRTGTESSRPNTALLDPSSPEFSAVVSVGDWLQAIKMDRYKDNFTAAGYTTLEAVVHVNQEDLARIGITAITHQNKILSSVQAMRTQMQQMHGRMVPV

[9] = target: Ephrin type-A receptor 7 (Homo sapiens) (UniProt Q15375); assay: Inhibition of human EphA7 at 10 uM after 60 mins by TR-FRET assay; values are per cent of control
[10] = target: Serine/threonine-protein kinase 17B (Homo sapiens) (UniProt O94768); assay: Inhibition of human DYRK2 at 10 uM after 60 mins by TR-FRET assay; values are per cent of control
[11] = target: SRSF protein kinase 2 (Homo sapiens) (UniProt P78362); assay: Inhibition of human SRPK2 at 10 uM after 60 mins by TR-FRET assay; values are per cent of control
[12] = target: Testis-specific serine/threonine-protein kinase 1 (Homo sapiens) (UniProt Q9BXA7); assay: Inhibition of human TSSK1 at 10 uM after 60 mins by TR-FRET assay; values are per cent of control
Sequence of Testis-specific serine/threonine-protein kinase 1 (Homo sapiens) (Q9BXA7 whole entry): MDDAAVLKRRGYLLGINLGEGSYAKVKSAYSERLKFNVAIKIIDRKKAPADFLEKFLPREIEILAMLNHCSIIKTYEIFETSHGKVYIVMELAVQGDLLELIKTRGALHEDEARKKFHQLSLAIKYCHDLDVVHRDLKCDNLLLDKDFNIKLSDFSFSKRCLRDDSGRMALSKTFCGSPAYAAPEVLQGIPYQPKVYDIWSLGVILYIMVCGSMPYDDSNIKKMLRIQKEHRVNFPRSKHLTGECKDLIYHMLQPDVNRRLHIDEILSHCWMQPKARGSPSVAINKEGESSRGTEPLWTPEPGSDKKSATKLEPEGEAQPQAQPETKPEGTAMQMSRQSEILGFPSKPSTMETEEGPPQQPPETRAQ

[13] = target: Testis-specific serine/threonine-protein kinase 2 (Homo sapiens) (UniProt Q96PF2); assay: Inhibition of human TSSK2 at 10 uM after 60 mins by TR-FRET assay; values are per cent of control
Sequence of Testis-specific serine/threonine-protein kinase 2 (Homo sapiens) (Q96PF2 whole entry): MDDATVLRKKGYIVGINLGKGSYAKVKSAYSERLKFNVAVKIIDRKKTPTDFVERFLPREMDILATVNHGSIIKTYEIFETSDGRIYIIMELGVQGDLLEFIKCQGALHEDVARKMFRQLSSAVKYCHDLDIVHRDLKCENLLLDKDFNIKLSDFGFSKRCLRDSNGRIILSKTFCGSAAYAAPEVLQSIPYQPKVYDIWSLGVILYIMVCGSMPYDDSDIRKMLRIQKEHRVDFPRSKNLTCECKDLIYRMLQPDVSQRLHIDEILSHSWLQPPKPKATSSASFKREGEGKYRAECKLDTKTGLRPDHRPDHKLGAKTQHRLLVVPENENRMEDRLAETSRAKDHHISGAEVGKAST

[14] = target: Serine/threonine-protein kinase BRSK2 (Homo sapiens) (UniProt Q8IWQ3); assay: Inhibition of human BrSK2 at 10 uM after 60 mins by TR-FRET assay; values are per cent of control
[15] = target: Serine/threonine-protein kinase 17A (Homo sapiens) (UniProt Q9UEE5); assay: Inhibition of human DRAK1 at 10 uM after 60 mins by TR-FRET assay; values are per cent of control
Sequence of Serine/threonine-protein kinase 17A (Homo sapiens) (Q9UEE5 whole entry): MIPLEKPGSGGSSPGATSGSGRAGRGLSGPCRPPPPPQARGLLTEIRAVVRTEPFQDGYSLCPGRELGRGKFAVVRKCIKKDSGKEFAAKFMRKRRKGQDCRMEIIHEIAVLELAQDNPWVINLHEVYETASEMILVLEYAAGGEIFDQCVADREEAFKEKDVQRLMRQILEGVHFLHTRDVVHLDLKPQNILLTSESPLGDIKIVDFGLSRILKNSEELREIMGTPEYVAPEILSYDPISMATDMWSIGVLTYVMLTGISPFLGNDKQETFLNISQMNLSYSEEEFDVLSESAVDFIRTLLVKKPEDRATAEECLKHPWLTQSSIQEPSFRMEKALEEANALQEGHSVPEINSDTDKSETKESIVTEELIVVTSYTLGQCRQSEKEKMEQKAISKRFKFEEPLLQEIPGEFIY

[16] = target: Serine/threonine-protein kinase haspin (Homo sapiens) (UniProt Q8TF76); assay: Inhibition of human Haspin at 10 uM after 60 mins by TR-FRET assay; values are per cent of control
[17] = target: Protein kinase C eta type (Homo sapiens) (UniProt P24723); assay: Inhibition of human PKCeta at 10 uM after 60 mins by TR-FRET assay; values are per cent of control
[18] = target: Inhibitor of nuclear factor kappa-B kinase subunit alpha (Homo sapiens) (UniProt O15111); assay: Inhibition of human IKKalpha at 10 uM after 60 mins by TR-FRET assay; values are per cent of control
[19] = target: RAC-gamma serine/threonine-protein kinase (Homo sapiens) (UniProt Q9Y243); assay: Inhibition of human PKBgamma at 10 uM after 60 mins by TR-FRET assay; values are per cent of control
[20] = target: Glycogen synthase kinase-3 alpha (Homo sapiens) (UniProt P49840); assay: Inhibition of human GSK3alpha at 10 uM after 60 mins by TR-FRET assay; values are per cent of control
Sequence of Glycogen synthase kinase-3 alpha (Homo sapiens) (P49840 2-483 limits assumed): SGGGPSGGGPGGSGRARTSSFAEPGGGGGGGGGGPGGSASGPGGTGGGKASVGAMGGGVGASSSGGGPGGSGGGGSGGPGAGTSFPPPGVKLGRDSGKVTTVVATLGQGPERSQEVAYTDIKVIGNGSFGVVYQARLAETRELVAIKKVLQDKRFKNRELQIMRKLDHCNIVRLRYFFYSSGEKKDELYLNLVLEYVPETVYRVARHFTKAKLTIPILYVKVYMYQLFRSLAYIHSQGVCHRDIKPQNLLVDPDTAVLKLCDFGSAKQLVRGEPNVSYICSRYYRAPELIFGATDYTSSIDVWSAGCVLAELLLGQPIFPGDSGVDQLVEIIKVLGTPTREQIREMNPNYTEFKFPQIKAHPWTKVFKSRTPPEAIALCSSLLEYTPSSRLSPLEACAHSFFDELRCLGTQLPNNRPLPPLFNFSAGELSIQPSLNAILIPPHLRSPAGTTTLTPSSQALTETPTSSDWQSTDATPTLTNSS

[21] = target: Platelet-derived growth factor receptor alpha (Homo sapiens) (UniProt P16234); assay: Inhibition of human PDGFRalpha at 10 uM after 60 mins by TR-FRET assay; values are per cent of control
[22] = target: Cyclin-dependent kinase 2/cyclin A (Homo sapiens) (UniProt P24941+P20248+P78396); assay: Inhibition of human CDK2/cyclinA at 10 uM after 60 mins by TR-FRET assay; values are per cent of control
[23] = test system: Proto-oncogene tyrosine-protein kinase receptor Ret (Homo sapiens), P07949 [V804L]; assay: Inhibition of human Ret V804L mutant at 10 uM after 60 mins by TR-FRET assay; values are per cent of control
Sequence of Proto-oncogene tyrosine-protein kinase receptor Ret (Homo sapiens), P07949 [V804L] (P07949 whole entry V804L): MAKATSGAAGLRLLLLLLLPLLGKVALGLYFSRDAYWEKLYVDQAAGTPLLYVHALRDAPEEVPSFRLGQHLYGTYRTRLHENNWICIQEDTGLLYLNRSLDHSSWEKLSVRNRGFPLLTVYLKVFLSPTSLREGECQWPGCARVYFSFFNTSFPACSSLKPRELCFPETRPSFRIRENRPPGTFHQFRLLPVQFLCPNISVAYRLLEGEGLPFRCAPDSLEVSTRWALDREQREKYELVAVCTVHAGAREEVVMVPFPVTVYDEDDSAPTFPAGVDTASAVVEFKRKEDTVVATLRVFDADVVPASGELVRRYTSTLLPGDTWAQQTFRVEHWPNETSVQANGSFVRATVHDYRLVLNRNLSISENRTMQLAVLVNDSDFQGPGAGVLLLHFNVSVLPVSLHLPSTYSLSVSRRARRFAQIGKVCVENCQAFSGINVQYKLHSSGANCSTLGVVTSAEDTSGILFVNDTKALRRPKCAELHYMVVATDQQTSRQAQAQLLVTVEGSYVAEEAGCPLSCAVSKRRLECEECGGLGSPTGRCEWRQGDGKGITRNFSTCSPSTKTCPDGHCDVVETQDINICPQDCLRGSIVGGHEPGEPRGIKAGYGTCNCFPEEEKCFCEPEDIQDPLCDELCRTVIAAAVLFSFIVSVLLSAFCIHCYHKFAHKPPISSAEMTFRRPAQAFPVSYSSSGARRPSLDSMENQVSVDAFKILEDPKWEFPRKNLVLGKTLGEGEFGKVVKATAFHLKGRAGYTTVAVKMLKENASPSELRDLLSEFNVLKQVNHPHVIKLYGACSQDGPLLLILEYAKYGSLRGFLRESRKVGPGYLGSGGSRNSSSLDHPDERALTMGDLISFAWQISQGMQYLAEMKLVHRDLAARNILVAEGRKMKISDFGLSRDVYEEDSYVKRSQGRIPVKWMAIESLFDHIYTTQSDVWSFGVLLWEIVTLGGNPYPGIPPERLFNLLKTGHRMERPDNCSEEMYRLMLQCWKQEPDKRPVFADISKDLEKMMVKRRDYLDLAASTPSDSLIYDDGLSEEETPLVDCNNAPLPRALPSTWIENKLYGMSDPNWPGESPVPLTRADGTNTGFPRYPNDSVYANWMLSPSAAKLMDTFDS

- residual activity [1]: 110%
- residual activity [2]: 103%
- residual activity [3]: 106%
- residual activity [4]: 119%
- residual activity [5]: 108%
- residual activity [6]: 106%
- residual activity [7]: 98%
- residual activity [8]: 127%
- residual activity [9]: 65%
- residual activity [10]: 104%
- residual activity [11]: 110%
- residual activity [12]: 111%
- residual activity [13]: 107%
- residual activity [14]: 103%
- residual activity [15]: 96%
- residual activity [16]: 102%
- residual activity [17]: 107%
- residual activity [18]: 100%
- residual activity [19]: 110%
- residual activity [20]: 85%
- residual activity [21]: 99%
- residual activity [22]: 114%
- residual activity [23]: 109%
SMILES: S=c1[nH]nc(-c2ccncc2)n1-c1ccc2ccccc2c1
